Test results from patent publication US9345711B2, “Methods for acute and long-term treatment of drug addiction” (DemeRx, Inc., priority 2014, dated 2016).
Entries after “also recorded” stand apart in the source; their conditions may differ.

How the values were obtained:
[1] = Pharmacokinetics of noribogaine in healthy volunteers after single oral dose (plasma, LCMSMS)
[2] = Pupillometry (pupillary miosis) in healthy volunteers; format: in vivo, human
Procedure: (§1) Pulse oximetry and capnography data were collected continuously using a GE Carescape B650 monitoring system from 2 hours prior to dosing and until six hours after dosing, and thereafter at 12, 24, 48 and 72 hours post-dosing. […] Pupillary miosis was assessed by pupillometry.

[3] = Safety and tolerability of noribogaine in healthy volunteers (adverse events, vital signs, ECG); format: in vivo, human
Procedure: as §1
(§2) Safety and tolerability of noribogaine were tested in the group of volunteers from Example 1. […] Safety evaluations included clinical monitoring, recording of adverse events (AEs), safety laboratory tests, vital signs, ECG telemetry from −2 h to 6 h after dosing, and 12-lead electrocardiograms (ECGs) up to 216 hours post-dosing.

[4] = Efficacy of noribogaine in opioid-dependent participants: time to resumption of opioid substitution treatment; format: in vivo, human; settings: for average time to resumption of opioids: single oral dose
Procedure: (§3) The efficacy of noribogaine in humans was evaluated in opioid-dependent participants in a randomized, placebo-controlled, double-blind trial. […] See U.S. Provisional Application Ser. No. 61/852,485, filed Mar. 15, 2013, which is incorporated herein by reference in its entirety.
(§4) In the first cohort, six patients were orally administered a single dose of 60 mg noribogaine, and three patients received placebo. In the second cohort, five patients were orally administered a single dose of 120 mg noribogaine, and three patients received placebo.
FIG. 3 indicates the serum noribogaine concentration over time. Serum concentrations for 120 mg dose (black squares) are estimated based on data from the 60 mg dose (gray diamonds).

[5] = Cold pressor test (analgesic effect) in healthy volunteers; format: in vivo, human
Procedure: Analgesic effect was assessed based on duration of hand immersion in ice water and on visual analog scale (VAS) pain scores upon hand removal from the water bath.
as §2

[6] = Safety and QT interval in opioid-dependent participants; format: in vivo, human; settings: for Mean prolongation of the QT interval: opioid-dependent patients
Procedure: as §3, §4

[7] = plasma glucuronide after single oral 30 mg noribogaine, healthy volunteers, mean (SD), n = 6
[8] = plasma glucuronide after single oral 60 mg noribogaine, healthy volunteers, mean (SD), n = 6
[9] = after adjusting for baseline differences, p>0.9
[10] = across dose groups (3-60 mg), healthy volunteers
[11] = 3 mg dose group, healthy volunteers
[12] = opioid-dependent participants, single oral 60 mg or 120 mg

CC[C@H]1C[C@@H]2C[C@H]3c4[nH]c5ccc(OC6OC(C(=O)O)C(O)C(O)C6O)cc5c4CCN(C2)[C@@H]13 (stereo partly drawn) [Noribogaine glucuronide]
AUC0-216 of noribogaine glucuronide [1, 7]: 25.7 (9.1) ng · hr/ml | AUC0-∞ of noribogaine glucuronide [1, 7]: 25.8 (9.3) ng · hr/ml | Cmax of noribogaine glucuronide [1, 7]: 1.8 (0.6) ng/ml | Tmax of noribogaine glucuronide [1, 7]: 3.0 (0.6) hr | t1/2 of noribogaine glucuronide [1, 7]: 20.6 (4.9) hr | AUC0-216 of noribogaine glucuronide [1, 8]: 65.0 (21.5) ng · hr/ml | AUC0-∞ of noribogaine glucuronide [1, 8]: 67.1 (21.9) ng · hr/ml | Cmax of noribogaine glucuronide [1, 8]: 4.1 (1.2) ng/ml | Tmax of noribogaine glucuronide [1, 8]: 3.8 (1.2) hr | t1/2 of noribogaine glucuronide [1, 8]: 23.1 (3.0) hr | time of peak glucuronide concentrations after noribogaine dosing ([1]; plasma, 30 mg and 60 mg noribogaine dose groups): 3 to 4 h

CC[C@H]1CC2C[C@H]3c4[nH]c5ccc(O)cc5c4CCN(C2)C13 [Noribogaine]
pupil diameter, each dose group vs placebo (ANOVA) [2, 9]: no statistically significant differences | pupillary constriction ([2]; healthy volunteers, 3-60 mg single oral dose): no evidence of pupillary constriction | dose-proportionality of Cmax and AUC ([1]; 3-60 mg single oral doses, linear regression): increased linearly with dose | Mean half-life estimates [1, 10]: 28 to 50 h | Volume of distribution [1, 10]: 1417 to 3086 L | CL/F ([1]; healthy male volunteers, single oral 3 mg noribogaine, mean (SD), n = 6): 41.4 (7.0) L/h | CL/F ([1]; healthy male volunteers, single oral 10 mg noribogaine, mean (SD), n = 6): 42.3 (12.0) L/h | CL/F ([1]; healthy male volunteers, single oral 30 mg noribogaine, mean (SD), n = 6): 46.9 (16.4) L/h | Tmax ([1]; healthy male volunteers, single oral 30 mg noribogaine, plasma, mean (SD), n = 6): 1.8 (0.6) hr | CL/F ([1]; healthy male volunteers, single oral 60 mg noribogaine, mean (SD), n = 6): 34.0 (11.4) L/h | time of peak concentrations after oral dosing ([1]; healthy volunteers, 3-60 mg dose groups): 2 to 3 h | adverse events, Mild [3, 11]: Dizziness; also recorded: Epistaxis; also recorded: Headache; also recorded: Back pain | adverse events, Moderate [3, 11]: Headache | number of adverse events reported ([3]; 3 mg dose group, two subjects): five adverse events | adverse events, Mild ([3]; 10 mg dose group, healthy volunteers): Headache | number of adverse events reported ([3]; 10 mg dose group, single subject): one adverse event | adverse events, Mild ([3]; 30 mg dose group, healthy volunteers): Headache | number of adverse events reported ([3]; 30 mg dose group, single subject): one adverse event | intensity of adverse events ([3]; all dose groups, all resolved prior to study completion): mild-moderate intensity | changes in oximetry, capnography or respiratory rate ([3]; healthy volunteers, 3-60 mg): no changes in oximetry or capnography, or changes in respiratory rate | changes in vital signs or safety laboratory tests ([3]; healthy volunteers, 3-60 mg): no changes in vital signs or safety laboratory tests of note | average time to resumption of opioids ([4]; first cohort, blinded: 60 mg noribogaine (6 patients) or placebo (3 patients)): approximately 8.7 hours | time to resumption of opioids longer than reported for untreated patients in a similar study ([4]; first cohort, blinded: 60 mg noribogaine or placebo): ~2 h | average time to resumption of OST ([4]; five presumed noribogaine-treated patients of second cohort (imputed, 120 mg), placebo construed from no QT prolongation): approximately 26.8 hours | impact on withdrawal symptoms in addicted patients ([4]; lower dosing of noribogaine, human clinical studies (summary statement)): minimal impact on withdrawal symptoms | average time to resumption of opioids ([4]; second cohort, blinded: 120 mg noribogaine (5 patients) or placebo (3 patients)): approximately 23 hours | VAS pain scores, each dose group vs placebo (ANOVA) ([5]; after adjusting for baseline differences, p=0.17): no statistically significant differences | duration of hand immersion, each dose group vs placebo (ANOVA) [5, 9]: no statistically significant differences | analgesic effect in the cold pressor test ([5]; healthy volunteers, 3-60 mg single oral dose, 1° C. water): no analgesic effect | Mean prolongation of the QT interval ([6]; first cohort (60 mg noribogaine or placebo)): less than 10 ms | adverse effects [6, 12]: No adverse effects | hallucinatory effects [6, 12]: no hallucinatory effects | Mean prolongation of the QT interval ([6]; second cohort (120 mg noribogaine or placebo)): less than 40 ms | prolongation of the treated patient's QT interval ([6]; summary statement, increases in opioid addicted patients compared to healthy individuals): dose dependent prolongation
